pEC50: −log10 of the molar value.
tested on: HCV 1b-377-neo replicon cells; experiment: HCV replicon assay, HCV 1b-377-neo replicon cells (1b FRET); format: cell-based, Hepatitis C virus genotype 1b; conditions: HCV 1b-377-neo replicon cells; HCV 1b genotype; read-out: EC50 range against HCV 1b (Table 2, Range)
How it was run: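 Compounds tested in HCV genotype 1b-377-neo replicon cells with a FRET read-out. Cells resistant to a reference NS5A inhibitor through a Y2065H NS5A mutation were run alongside wild-type cells.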

Row | Molecule | pEC50
1 | (1R)-N,N-dimethyl-2-((2S)-2-(5-(4′-(2-((2S)-1- ((2R)-2-(4-morpholinyl)-2-phenylacetyl)-2- pyrrolidinyl)-1H-imidazol-5-yl)-4-biphenylyl)- 1H-imidazol-2-yl)-1-pyrrolidinyl)-2-oxo-1- phenylethanamine [Example 89] | 9.00 to 12.00

same assay, conditions: Hepatitis C virus, HCV 1b-377-neo replicon cells; HCV 1b genotype; read-out: EC50 range against HCV 1b (Table 2, Range)

Row | Molecule | pEC50
2 | CCN(CC)[C@@H](C(=O)N1CCC[C@H]1c1ncc(-c2ccc(-c3ccc(-c4cnc([C@@H]5CC(F)(F)CN5C(=O)[C@@H](c5ccccc5)N(CC)CC)[nH]4)cc3)cc2)[nH]1)c1ccccc1 (mixture of isomers) [OL-13, rac-(1R)-2-((2S)-2-(4-(4′-(2-((2S)-1-((2R)-2-(diethylamino)-2-phenylacetyl)-4,4-difluoro-2-pyrrolidinyl)-1H-imidazol-4-yl)-4-biphenylyl)-1H-imidazol-2-yl)-1-pyrrolidinyl)-N,N-diethyl-2-oxo-1-phenylethanamine] | 9.00 to 12.00
3 | COC(=O)N[C@@H](C(=O)N1CCC[C@H]1c1ncc(-c2ccc(-c3ccc(-c4cnc([C@@H]5CCCN5C(=O)[C@H](NC(=O)OC)c5ccccc5)[nH]4)cc3C)c(C)c2)[nH]1)c1ccccc1 [Example 122] | 9.00 to 12.00
4 | CCN(CC)[C@@H](C(=O)N1CCC[C@H]1c1ncc(-c2ccc(-c3ccc(-c4cnc([C@@H]5CCCN5C(=O)N5CCOCC5)[nH]4)cc3)cc2)[nH]1)c1ccccc1 [Example M51, (1R)-N,N-diethyl-2-((2S)-2-(5-(4′-(2-((2S)-1-(4-morpholinylcarbonyl)-2-pyrrolidinyl)-1H-imidazol-5-yl)-4-biphenylyl)-1H-imidazol-2-yl)-1-pyrrolidinyl)-2-oxo-1-phenylethanamine] | 7.00 to 9.00
5 | COC(=O)N[C@@H](C(=O)N1CCC[C@H]1c1ncc(-c2ccc(-c3cnc(-c4cnc([C@@H]5CCCN5C(=O)[C@H](NC(=O)OC)c5ccccc5)[nH]4)cn3)cc2)[nH]1)c1ccccc1 [Example 152j-8, methyl ((1R)-2-((2S)-2-(5-(5-(4-(2-((2S)-1-((2R)-2-((methoxycarbonyl)amino)-2-phenylacetyl)-2-pyrrolidinyl)-1H-imidazol-5-yl)phenyl)-2-pyrazinyl)-1H-imidazol-2-yl)-1-pyrrolidinyl)-2-oxo-1-phenylethyl)carbamate] | 9.00 to 12.00
6 | CCC(C)[C@H](NC)C(=O)N1CCC[C@H]1c1nc(-c2ccc(-c3ccc(-c4cnc([C@@H]5CCCN5C(=O)[C@@H](NC)C(C)CC)[nH]4)cc3)cc2)c[nH]1 (stereo partly drawn) [Example F33, (2S)-N,3-dimethyl-1-((2S)-2-(4-(4′-(2-((2S)-1-((2S)-3-methyl-2-(methylamino)pentanoyl)-2-pyrrolidinyl)-1H-imidazol-5-yl)-4-biphenylyl)-1H-imidazol-2-yl)-1-pyrrolidinyl)-1-oxo-2-pentanamine] | 6.00 to 7.00
7 | CN(C)[C@@H](C(=O)N1CCC[C@H]1c1ncc(-c2ccc(-c3ccc(-c4cnc([C@@H]5CCCN5C(=O)[C@@H]5CCCO5)[nH]4)cc3)cc2)[nH]1)c1ccccc1 [Example 87, (1R)-N,N-dimethyl-2-oxo-1-phenyl-2-((2S)-2-(5-(4′-(2-((2S)-1-((2S)-tetrahydro-2-furanylcarbonyl)-2-pyrrolidinyl)-1H-imidazol-5-yl)-4-biphenylyl)-1H-imidazol-2-yl)-1-pyrrolidinyl)ethanamine] | 9.00 to 12.00
8 | COC(=O)N[C@@H](CC(=O)N1CCC[C@H]1c1ncc(-c2ccc(-c3ccc(-c4cnc([C@@H]5CCCN5C(=O)C[C@H](NC(=O)OC)c5ccccc5)[nH]4)cc3)cc2)[nH]1)c1ccccc1 [cj-129, methyl ((1S)-3-((2S)-2-(5-(4′-(2-(1-((3S)-3-((methoxycarbonyl)amino)-3-phenylpropanoyl)-2-pyrrolidinyl)-1H-imidazol-5-yl)-4-biphenylyl)-1H-imidazol-2-yl)-1-pyrrolidinyl)-3-oxo-1-phenylpropyl)carbamate] | 9.00 to 12.00
9 | COC(=O)N[C@H](C(=O)N1CCC[C@H]1c1ncc(-c2ccc(-c3ccc(-c4cnc([C@@H]5CCCN5C(=O)[C@@H](NC(=NC#N)N(C)C)C(C)C)[nH]4)cc3)cc2)[nH]1)C(C)C [cj-17, methyl ((1S)-1-(((2S)-2-(5-(4′-(2-((2S)-1-(N-(cyano(dimethyl)carbamimidoyl)-L-valyl)-2-pyrrolidinyl)-1H-imidazol-5-yl)-4-biphenylyl)-1H-imidazol-2-yl)-1-pyrrolidinyl)carbonyl)-2-methylpropyl)carbamate] | 9.00 to 12.00
10 | CCOC(=O)N[C@@H](C)C(=O)N1CCC[C@H]1c1ncc(-c2ccc(-c3ccc(-c4cnc([C@@H]5CCCN5C(=O)[C@@H](c5ccccc5)N(CC)CC)[nH]4)cc3)cc2)[nH]1 [Example M31, ethyl ((1S)-2-((2S)-2-(5-(4′-(2-((2S)-1-((2R)-2-(diethylamino)-2-phenylacetyl)-2-pyrrolidinyl)-1H-imidazol-5-yl)-4-biphenylyl)-1H-imidazol-2-yl)-1-pyrrolidinyl)-1-methyl-2-oxoethyl)carbamate] | 7.00 to 9.00
11 | COC(=O)N[C@@H]1CCCC[C@H]1C(=O)N1CCC[C@H]1c1ncc(-c2ccc(-c3ccc(-c4cnc([C@@H]5CCCN5C(=O)[C@@H]5CCCC[C@H]5NC(=O)OC)[nH]4)cc3)cc2)[nH]1 [cj-139, dimethyl (4,4′-biphenyldiylbis(1H-imidazole-5,2-diyl(2S)-2,1-pyrrolidinediylcarbonyl(1R,2R)-2,1-cyclohexanediyl))biscarbamate] | 7.00 to 9.00
12 | COC(=O)N[C@H](C(=O)N1CCC[C@H]1c1nc(C)c(-c2ccc(-c3ccc(-c4nc([C@@H]5CCCN5C(=O)[C@@H](NC(=O)OC)[C@@H](C)OC)[nH]c4C)cc3)cc2)[nH]1)C(C)OC (stereo in doubt) [Example E5m, methyl ((1S,2R)-2-methoxy-1-(((2S)-2-(4-(4′-(2-((2S)-1-(N-(methoxycarbonyl)-O-methyl-L-threonyl)-2-pyrrolidinyl)-5-methyl-1H-imidazol-4-yl)-4-biphenylyl)-5-methyl-1H-imidazol-2-yl)-1-pyrrolidinyl)carbonyl)propyl)carbamate] | 9.00 to 12.00
13 | CCN(CC)[C@@H](C(=O)N1C[C@@H](O)C[C@H]1c1ncc(-c2ccc(-c3ccc(-c4cnc([C@@H]5C[C@H](O)CN5C(=O)[C@@H](c5ccccc5)N(CC)CC)[nH]4)cc3)cc2)[nH]1)c1ccccc1 [JG-7, (3S,5S,3′S,5′S)-5,5′-(4,4′-biphenyldiylbis(1H-imidazole-5,2-diyl))bis(1-((2R)-2-(diethylamino)-2-phenylacetyl)-3-pyrrolidinol)] | 9.00 to 12.00
14 | CC(=O)N[C@@H](C(=O)N1CCC[C@H]1c1ncc(-c2ccc(-c3ccc(-c4cnc([C@@H]5CCCN5C(=O)[C@H](NC(C)=O)c5ccccc5)[nH]4)cn3)cc2)[nH]1)c1ccccc1 [Example 139, N-((1R)-2-((2S)-2-(5-(6-(4-(2-((2S)-1-((2R)-2-acetamido-2-phenylacetyl)-2-pyrrolidinyl)-1H-imidazol-5-yl)phenyl)-3-pyridinyl)-1H-imidazol-2-yl)-1-pyrrolidinyl)-2-oxo-1-phenylethyl)acetamide] | 9.00 to 12.00
15 | COC(=O)N[C@@H](C(=O)N1CCC[C@H]1c1ncc(-c2ccc(-c3ccc(-c4cnc([C@@H]5CCCN5C(=O)[C@H](NC(=O)OC)C5CC5)[nH]4)cc3)cc2)[nH]1)C1CC1 [Example M22, dimethyl (4,4′-biphenyldiylbis(1H-imidazole-5,2-diyl(2S)-2,1-pyrrolidinediyl((1R)-1-cyclopropyl-2-oxo-2,1-ethanediyl)))biscarbamate] | 5.00 to 6.00
16 | CC(C)[C@H](NC(=O)OC(C)(C)C)C(=O)N1[C@@H]2C[C@@H]2C[C@H]1c1nc(-c2ccc(-c3ccc(-c4c[nH]c([C@@H]5C[C@H]6C[C@H]6N5C(=O)[C@@H](NC(=O)OC(C)(C)C)C(C)C)n4)cc3)cc2)c[nH]1 [Example M140a-ii, tert-butyl ((1S)-1-(((1R,3S,5R)-3-(4-(4′-(2-((1R,3S,5R)-2-((2S)-2-((tert-butoxycarbonyl)amino)-3-methylbutanoyl)-2-azabicyclo[3.1.0]hex-3-yl)-1H-imidazol-4-yl)-4-biphenylyl)-1H-imidazol-2-yl)-2-azabicyclo[3.1.0]hex-2-yl)carbonyl)-2-methylpropyl)carbamate] | 7.00 to 9.00
17 | COC(=O)N[C@@H](C(=O)N1CCC[C@H]1c1ncc(-c2ccc(-c3ccc(-c4cnc([C@@H]5CCCN5C(=O)[C@@H]5CCCN5)[nH]4)cc3)cc2)[nH]1)c1ccccc1 [Example 80, methyl ((1R)-2-oxo-1-phenyl-2-((2S)-2-(5-(4′-(2-((2S)-1-L-prolyl-2-pyrrolidinyl)-1H-imidazol-5-yl)-4-biphenylyl)-1H-imidazol-2-yl)-1-pyrrolidinyl)ethyl)carbamate] | 9.00 to 12.00
18 | COc1ccccc1OCC(=O)N1CCC[C@H]1c1ncc(-c2ccc(-c3ccc(-c4cnc([C@@H]5CCCN5C(=O)[C@@H](c5ccccc5)N5CCCCC5)[nH]4)cc3)cc2)[nH]1 [Example 107-8, 1-((1R)-2-((2S)-2-(5-(4′-(2-((2S)-1-((2-methoxyphenoxy)acetyl)-2-pyrrolidinyl)-1H-imidazol-5-yl)-4-biphenylyl)-1H-imidazol-2-yl)-1-pyrrolidinyl)-2-oxo-1-phenylethyl) piperidine] | 9.00 to 12.00
19 | COC(=O)NC1(C(=O)N2CCC[C@H]2c2ncc(-c3ccc(-c4ccc(-c5cnc([C@@H]6CCCN6C(=O)C6(NC(=O)OC)CC6)[nH]5)cc4)cc3)[nH]2)CC1 [Example M6, dimethyl (4,4′-biphenyldiylbis(1H-imidazole-5,2-diyl(2S)-2,1-pyrrolidinediylcarbonyl-1,1-cyclopropanediyl))bis-carbamate] | 5.00 to 6.00
20 | O=C([C@@H](c1ccccc1)N1CCCCC1)N1C[C@@H](F)C[C@H]1c1ncc(-c2ccc(-c3ccc(-c4cnc([C@@H]5C[C@H](F)CN5C(=O)[C@@H](c5ccccc5)N5CCCCC5)[nH]4)cc3)cc2)[nH]1 [Example 24-7] | 9.00 to 12.00
21 | CN[C@@H](C(=O)N1CCC[C@H]1c1nc(-c2ccc(-c3ccc(-c4cnc([C@@H]5CCCN5C(=O)[C@H](NC)c5ccccc5)[nH]4)cc3)cc2)c[nH]1)c1ccccc1 [Example F15, (1R)-N-methyl-2-((2S)-2-(4-(4′-(2-((2S)-1-((2R)-2-(methylamino)-2-phenylacetyl)-2-pyrrolidinyl)-1H-imidazol-5-yl)-4-biphenylyl)-1H-imidazol-2-yl)-1-pyrrolidinyl)-2-oxo-1-phenylethanamine] | 9.00 to 12.00

Source: patent US8574563B2 (Bristol-Myers Squibb Company, priority 2006, dated 2013)
